Active and inactive are the calls of the source. No cut-off for these calls is given here.
Experiments:
[1] = Inhibition of sheep brain tubulin polymerization assessed as reduction in rate of microtubule assembly by DAPI-fluorescence based assay; design: species or system Ovis aries
HCT-116 = experiment: Antiproliferative activity against human HCT116 cells after 72 hrs by MTS assay; type: functional; details: Homo sapiens, HCT-116, 72 h
Histone deacetylase 8 = biological target: T1, Histone deacetylase 8 (Homo sapiens, UniProt Q9BY41); experiment: Inhibition of human recombinant HDAC8 after 30 mins using fluorogenic substrate by fluorimetric assay; details: read-out: IC50
T1 sequence (Q9BY41 whole entry): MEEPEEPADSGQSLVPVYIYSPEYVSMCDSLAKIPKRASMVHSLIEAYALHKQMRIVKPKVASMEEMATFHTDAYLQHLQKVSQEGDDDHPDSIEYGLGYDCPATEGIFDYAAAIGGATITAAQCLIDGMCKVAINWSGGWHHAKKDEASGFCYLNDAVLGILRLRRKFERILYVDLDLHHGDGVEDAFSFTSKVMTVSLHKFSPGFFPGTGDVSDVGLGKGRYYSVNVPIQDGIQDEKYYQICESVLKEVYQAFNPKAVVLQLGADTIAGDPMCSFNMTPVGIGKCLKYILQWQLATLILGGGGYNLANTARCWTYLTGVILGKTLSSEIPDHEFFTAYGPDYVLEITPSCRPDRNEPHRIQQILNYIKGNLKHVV

Histone deacetylase 11 = biological target: T2, Histone deacetylase 11 (Homo sapiens, UniProt Q96DB2); experiment: Inhibition of human recombinant HDAC11 after 30 mins using fluorogenic substrate by fluorimetric assay; details: read-out: IC50
T2 sequence (Q96DB2 whole entry): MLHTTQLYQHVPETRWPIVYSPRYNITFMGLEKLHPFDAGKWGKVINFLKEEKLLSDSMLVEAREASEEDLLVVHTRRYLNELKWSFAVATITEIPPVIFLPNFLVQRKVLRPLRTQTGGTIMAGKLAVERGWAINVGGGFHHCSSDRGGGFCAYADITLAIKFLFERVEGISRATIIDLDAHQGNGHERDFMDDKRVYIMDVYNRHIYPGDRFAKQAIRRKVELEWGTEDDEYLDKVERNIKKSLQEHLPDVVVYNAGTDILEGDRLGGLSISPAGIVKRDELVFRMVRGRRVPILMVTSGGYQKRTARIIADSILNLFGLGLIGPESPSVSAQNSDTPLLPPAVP

[2] = biological target: T3, Protein deacetylase HDAC6 (Homo sapiens, UniProt Q9UBN7)
T3 sequence (Q9UBN7 whole entry): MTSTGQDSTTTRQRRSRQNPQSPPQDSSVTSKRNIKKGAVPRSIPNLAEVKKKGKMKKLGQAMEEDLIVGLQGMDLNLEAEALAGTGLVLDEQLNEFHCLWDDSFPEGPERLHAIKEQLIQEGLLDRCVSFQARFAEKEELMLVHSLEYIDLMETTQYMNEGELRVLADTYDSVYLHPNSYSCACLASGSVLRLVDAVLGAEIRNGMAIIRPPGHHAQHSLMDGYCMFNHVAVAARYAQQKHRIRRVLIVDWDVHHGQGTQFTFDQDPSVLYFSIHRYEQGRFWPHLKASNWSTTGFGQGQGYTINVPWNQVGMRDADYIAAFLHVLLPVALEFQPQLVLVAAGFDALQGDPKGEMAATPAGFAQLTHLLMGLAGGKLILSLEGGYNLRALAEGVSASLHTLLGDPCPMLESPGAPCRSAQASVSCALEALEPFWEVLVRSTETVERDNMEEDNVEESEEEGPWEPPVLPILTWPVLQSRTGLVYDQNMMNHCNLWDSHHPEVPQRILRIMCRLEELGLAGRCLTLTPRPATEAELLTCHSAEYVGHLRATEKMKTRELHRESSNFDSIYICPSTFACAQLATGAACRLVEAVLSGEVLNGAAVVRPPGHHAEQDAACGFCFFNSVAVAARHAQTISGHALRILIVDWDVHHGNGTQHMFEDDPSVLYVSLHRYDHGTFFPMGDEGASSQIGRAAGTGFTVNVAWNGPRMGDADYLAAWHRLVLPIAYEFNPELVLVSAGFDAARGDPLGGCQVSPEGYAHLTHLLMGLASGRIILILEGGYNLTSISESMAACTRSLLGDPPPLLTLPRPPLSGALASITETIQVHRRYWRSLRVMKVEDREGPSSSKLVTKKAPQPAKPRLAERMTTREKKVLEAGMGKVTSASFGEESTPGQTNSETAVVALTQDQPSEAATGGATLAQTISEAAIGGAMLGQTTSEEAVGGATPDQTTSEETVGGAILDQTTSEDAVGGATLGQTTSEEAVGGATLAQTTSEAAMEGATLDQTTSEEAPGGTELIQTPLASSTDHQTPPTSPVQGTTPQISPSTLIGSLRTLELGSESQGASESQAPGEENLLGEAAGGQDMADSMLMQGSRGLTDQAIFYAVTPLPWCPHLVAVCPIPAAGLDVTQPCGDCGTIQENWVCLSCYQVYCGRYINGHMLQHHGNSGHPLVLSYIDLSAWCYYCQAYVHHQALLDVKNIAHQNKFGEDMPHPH
Description: Inhibition of human recombinant HDAC6 after 30 mins using fluorogenic substrate by fluorimetric assay

Ovis aries = species on record: Ovis aries; experiment: Inhibition of sheep brain tubulin polymerization assessed as reduction in rate of microtubule assembly at 200 uM by DAPI-fluorescence based assay
[3] = biological target: T4, Histone deacetylase 8 (Homo sapiens) (UniProt Q9BY41); experiment: Inhibition of HDAC8 in human HT-29 cells assessed as acetylated SMC3 levels at 25 uM after 24 hrs by Western blot analysis relative to control; type: cell-based
T4 sequence (whole entry): T1 sequence (Q9BY41 whole entry)

[4] = biological target: T4, Histone deacetylase 8 (Homo sapiens); experiment: Inhibition of HDAC8 in human HT-29 cells assessed as acetylated SMC3 levels at 25 uM after 6 hrs by Western blot analysis relative to control; type: cell-based
A549 = experiment: Antiproliferative activity against human A549 cells after 72 hrs by MTS assay; type: functional; details: Homo sapiens, A549, 72 h
[5] = biological target: T5, Protein deacetylase HDAC6 (Homo sapiens) (UniProt Q9UBN7); experiment: Inhibition of HDAC6 in human HT-29 cells assessed as acetylated alpha-tubulin levels at 25 uM after 24 hrs by Western blot analysis relative to control; type: cell-based
T5 sequence (whole entry): T3 sequence (Q9UBN7 whole entry)

MIA PaCa-2 = experiment: Antiproliferative activity against human MIAPaCa2 cells after 72 hrs by MTS assay; type: functional; details: Homo sapiens, MIA PaCa-2, 72 h
BXPC-3 = experiment: Antiproliferative activity against human BxPC3 cells after 72 hrs by MTS assay; type: functional; details: Homo sapiens, BXPC-3, 72 h
U-87 MG = experiment: Antiproliferative activity against human U87 cells after 72 hrs by MTS assay; type: functional, U-87MG ATCC; details: Homo sapiens, U-87 MG, 72 h
HT-29 = experiment: Antiproliferative activity against human HT-29 cells after 72 hrs by MTS assay; type: functional; details: Homo sapiens, HT-29, 72 h
[6] = biological target: T5, Protein deacetylase HDAC6 (Homo sapiens); experiment: Inhibition of HDAC6 in human HT-29 cells assessed as acetylated alpha-tubulin levels at 25 uM after 6 hrs by Western blot analysis relative to control; type: cell-based
PC-3 = experiment: Antiproliferative activity against human PC3 cells after 72 hrs by MTS assay; type: functional; details: Homo sapiens, PC-3, 72 h
MCF7 = experiment: Antiproliferative activity against human MCF7 cells after 72 hrs by MTS assay; type: functional; details: Homo sapiens, MCF7, 72 h
K562 = experiment: Antiproliferative activity against human K562 cells after 72 hrs by MTS assay; type: functional; details: Homo sapiens, K562, 72 h
K-562R = experiment: Antiproliferative activity against human K562R cells after 72 hrs by MTS assay; type: functional; details: Homo sapiens, K-562R, 72 h

C=C(c1ccc(OC)c(C#CCCCC(=O)NO)c1)c1cc(OC)c(OC)c(OC)c1
IC50 [1]: 18000 nM
GI50 (HCT-116): 372 nM

C=C(c1ccc(OC)c(OCC(=O)OCC)c1)c1cc(OC)c(OC)c(OC)c1
IC50 [1]: 5000 nM
GI50 (HCT-116): 150 nM

C=C(c1ccc(OC)c(C#CCCC(=O)NO)c1)c1cc(OC)c(OC)c(OC)c1
IC50 [1]: 1700 nM
GI50 (HCT-116): 8 nM

C=C(c1cc(OC)c(OC)c(OC)c1)c1ccc2c(ccn2CCC(=O)NO)c1
IC50 [1]: 22000 nM
GI50 (HCT-116): 393 nM

C=C(c1cc(OC)c(OC)c(OC)c1)c1ccc2c(c1)c(/C=C/C(=O)NO)cn2C
IC50 [1]: 3700 nM
IC50 (Histone deacetylase 8): 240 nM
GI50 (HCT-116): 14 nM
IC50 (Histone deacetylase 11): 5000 nM
IC50 [2]: 6900 nM

C=C(c1cc(OC)c(OC)c(OC)c1)c1ccc2c(c1)cc(/C=C/C(=O)NO)n2C
IC50 [1]: 5400 nM
IC50 (Histone deacetylase 8): 6200 nM
GI50 (HCT-116): 20 nM
IC50 [2]: 3800 nM

C=C(c1ccc(OC)c(OCCCC(=O)NO)c1)c1cc(OC)c(OC)c(OC)c1
GI50 (HCT-116): 500 nM
inhibition (Ovis aries): inactive

C=C(c1cc(OC)c(OC)c(OC)c1)c1ccc(OC)c(C(=O)Nc2ccccc2N)c1
GI50 (HCT-116): 340 nM
inhibition (Ovis aries): inactive

C=C(c1cc(OC)c(OC)c(OC)c1)c1ccc(OC)c(C(=O)NO)c1
IC50 [1]: 20000 nM
GI50 (HCT-116): 233 nM

COc1ccc(Cn2ccc3ccc(C(=O)NO)cc32)cc1
fold change (FC) [3]: 4.8
fold change (FC) [4]: 3.1
GI50 (A549): > 20000 nM
fold change (FC) [5]: 1.7
GI50 (MIA PaCa-2): > 20000 nM
GI50 (BXPC-3): > 20000 nM
GI50 (U-87 MG): > 15000 nM
GI50 (HCT-116): 2640 nM
GI50 (HT-29): > 10000 nM
fold change (FC) [6]: 0.5
GI50 (PC-3): 2660 nM
GI50 (MCF7): 2970 nM
GI50 (K562): 2010 nM
GI50 (K-562R): 2200 nM

C=C(c1cc(OC)c(OC)c(OC)c1)c1ccc(OC)c(/C=C/C(=O)NO)n1
IC50 [1]: 7500 nM
GI50 (HCT-116): 37.2 nM

C=C(c1ccc(OC)c(OCCCCCCC(=O)NO)c1)c1cc(OC)c(OC)c(OC)c1
GI50 (HCT-116): 2500 nM
inhibition (Ovis aries): inactive

— ChEMBL document CHEMBL4325829, “Design and Synthesis of Tubulin and Histone Deacetylase Inhibitor Based on iso-Combretastatin A-4” (J Med Chem, 2018)
